Measurements reported in US9920032B2, “Heterocyclic compounds useful as pim kinase inhibitors” (Incyte Corporation, priority 2015, dated 2018).

How the values were obtained:
Format in all cases: biochemical
Pim-2 = Pim-2 (Homo sapiens (Human), UniProt Q9P1W9); assay: Pim-2 kinase assay; settings: 1 mM ATP; read-out: PIM2 IC50
Summary of the method: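 TR-FRET assay with 1 nM enzyme, 0.05 μM fluorescein-CREBtide and 1 mM ATP in Tris pH 7.5 buffer with MgCl2, DTT, BSA and Tween-20, run 2 h at 25° C. Stopped with EDTA and Tb-labelled anti-CREB pSer133 antibody, then read after 30 min at room temperature.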

Pim-1 = Pim-1 (Homo sapiens (Human), UniProt P11309); assay: Pim-1 kinase assay; settings: 1 mM ATP; read-out: PIM1 IC50
Summary of the method: (§1)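 Enzyme at 2.5 pM (Pim-1) or 1.25 pM (Pim-3) reacted 1 h at 25° C with 1 mM ATP and 0.05 μM biotinylated BAD peptide, pH 7.5. Phospho-Ser112 BAD detected by antibody/Protein-A acceptor and streptavidin donor bead proximity signal after EDTA quench and 1 h dark incubation.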

Pim-3 = Pim-3 (Homo sapiens (Human), UniProt Q86V86); assay: Pim-3 kinase assay; settings: 1 mM ATP; read-out: PIM3 IC50
Summary of the method: as §1

Chain of Pim-1 (P11309 whole entry): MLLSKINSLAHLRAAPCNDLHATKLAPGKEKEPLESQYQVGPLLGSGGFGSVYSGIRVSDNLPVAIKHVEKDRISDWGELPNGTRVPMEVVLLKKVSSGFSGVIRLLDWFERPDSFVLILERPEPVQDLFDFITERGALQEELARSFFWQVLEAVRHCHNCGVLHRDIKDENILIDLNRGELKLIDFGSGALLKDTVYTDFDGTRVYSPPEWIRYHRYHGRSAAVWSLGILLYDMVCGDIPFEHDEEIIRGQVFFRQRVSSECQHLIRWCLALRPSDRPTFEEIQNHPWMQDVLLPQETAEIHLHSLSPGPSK
Chain of Pim-2 (Q9P1W9 whole entry): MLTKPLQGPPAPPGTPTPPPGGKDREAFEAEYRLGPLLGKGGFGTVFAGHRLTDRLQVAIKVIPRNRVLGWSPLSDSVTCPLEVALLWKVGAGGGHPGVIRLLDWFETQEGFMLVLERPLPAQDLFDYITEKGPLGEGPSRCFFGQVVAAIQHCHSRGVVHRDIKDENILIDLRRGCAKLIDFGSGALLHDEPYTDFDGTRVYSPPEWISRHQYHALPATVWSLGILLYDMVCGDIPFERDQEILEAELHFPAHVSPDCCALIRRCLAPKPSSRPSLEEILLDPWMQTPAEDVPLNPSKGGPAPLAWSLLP

| Compound | IC50 (Pim-2) [nM] | IC50 (Pim-1) [nM] | IC50 (Pim-3) [nM] |
| --- | --- | --- | --- |
| CC1CCCCN1c1cc2c(F)ccc(C(=O)Nc3cnccc3[C@@H]3C[C@H](C)C[C@H](N)C3)c2nn1 (stereo partly drawn) [Example 93, N-{4-[(1R,3S,5S)-3-Amino-5-methylcyclohexyl]pyridin-3-yl}-5-fluoro-3-(2-methylpiperidin-1-yl)cinnoline-8-carboxamide] | ≤ 100 | ≤ 10 | ≤ 10 |
| C[C@@H]1C[C@H](N)C[C@H](c2ccncc2NC(=O)c2ccc(F)c3cc(N4CCOC[C@H]4C)nnc23)C1 [Example 94, N-{4-[(1R,3S,5S)-3-Amino-5-methylcyclohexyl]pyridin-3-yl}-5-fluoro-3-[(3R)-3-methylmorpholin-4-yl]cinnoline-8-carboxamide] | ≤ 100 | ≤ 10 | ≤ 10 |
| C[C@@H]1C[C@H](N)C[C@H](c2ccncc2NC(=O)c2ccc(F)c3cc(N4CCC[C@H]4C)nnc23)C1 [Example 95, N-{4-[(1R,3S,5S)-3-Amino-5-methylcyclohexyl]pyridin-3-yl}-5-fluoro-3-[(2R)-2-methylpyrrolidin-1-yl]cinnoline-8-carboxamide] | ≤ 100 | ≤ 10 | ≤ 10 |
| C[C@@H]1C[C@H](N)C[C@H](c2ccncc2NC(=O)c2ccc(F)c3cc(N4CC5CCC4C5)cnc23)C1 (stereo partly drawn) [Example 96, N-(4-((1R,3S,5S)-3-Amino-5-methylcyclohexyl)pyridin-3-yl)-3-(2-azabicyclo[2.2.1]heptan-2-yl)-5-fluoroquinoline-8-carboxamide] | ≤ 100 | ≤ 10 | ≤ 10 |
| C[C@@H]1C[C@H](N)C[C@H](c2ccncc2NC(=O)c2ccc(F)c3cc(N(C)c4ccccc4F)cnc23)C1 [Example 97, N-(4-((1R,3S,5S)-3-Amino-5-methylcyclohexyl)pyridin-3-yl)-5-fluoro-3-((2-fluorophenyl)(methyl)amino)quinoline-8-carboxamide] | ≤ 100 | ≤ 10 | ≤ 10 |
| C[C@@H]1C[C@H](N)C[C@H](c2ccncc2NC(=O)c2ccc(F)c3cc(N4C5CCC4CC(O)C5)cnc23)C1 (stereo partly drawn) [Example 98, N-(4-((1R,3S,5S)-3-Amino-5-methylcyclohexyl)pyridin-3-yl)-5-fluoro-3-(3-hydroxy-8-azabicyclo[3.2.1]octan-8-yl)quinoline-8-carboxamide] | ≤ 100 | ≤ 10 | ≤ 10 |
| C[C@@H]1C[C@H](N)C[C@H](c2ccncc2NC(=O)c2ccc(F)c3cc(N4CC(=O)N(C)C[C@H]4C)cnc23)C1 [Example 99, N-(4-((1R,3S,5S)-3-Amino-5-methylcyclohexyl)pyridin-3-yl)-3-((R)-2,4-dimethyl-5-oxopiperazin-1-yl)-5-fluoroquinoline-8-carboxamide] | ≤ 100 | ≤ 10 | ≤ 10 |
| C[C@@H]1C[C@H](N)C[C@H](c2ccncc2NC(=O)c2ccc(F)c3cc(N4CC(=O)N5CCCC[C@@H]5C4)cnc23)C1 [Example 100, N-(4-((1R,3S,5S)-3-Amino-5-methylcyclohexyl)pyridin-3-yl)-5-fluoro-3-((R)-4-oxodihydro-1H-pyrido[1,2-a]pyrazin-2(6H,7H,8H,9H,9aH)-yl)quinoline-8-carboxamide] | ≤ 100 | ≤ 10 | ≤ 10 |
| COC1CCCN(c2cnc3c(C(=O)Nc4cnccc4[C@@H]4C[C@H](C)C[C@H](N)C4)ccc(F)c3c2)CC1 (stereo partly drawn) [Example 101, N-(4-((1R,3S,5S)-3-Amino-5-methylcyclohexyl)pyridin-3-yl)-5-fluoro-3-(4-methoxyazepan-1-yl)quinoline-8-carboxamide] | ≤ 100 | ≤ 10 | ≤ 10 |
| C[C@@H]1C[C@H](N)C[C@H](c2ccncc2NC(=O)c2ccc(F)c3cc(N4CCCOCC4)cnc23)C1 [Example 102, N-(4-((1R,3S,5S)-3-Amino-5-methylcyclohexyl)pyridin-3-yl)-5-fluoro-3-(1,4-oxazepan-4-yl)quinoline-8-carboxamide] | ≤ 100 | ≤ 10 | ≤ 10 |
| C[C@@H]1C[C@H](N)C[C@H](c2ccncc2NC(=O)c2ccc(F)c3cc(N4CC5(CC(O)C5)C4)cnc23)C1 [Example 103, N-(4-((1R,3S,5S)-3-Amino-5-methylcyclohexyl)pyridin-3-yl)-5-fluoro-3-(6-hydroxy-2-azaspiro[3.3]heptan-2-yl)quinoline-8-carboxamide] | ≤ 100 | ≤ 10 | ≤ 10 |
| C[C@@H]1C[C@H](N)C[C@H](c2ccncc2NC(=O)c2ccc(F)c3cc(N4CCCC(O)CC4)cnc23)C1 (stereo partly drawn) [Example 104, N-(4-((1R,3S,5S)-3-Amino-5-methylcyclohexyl)pyridin-3-yl)-5-fluoro-3-(4-hydroxyazepan-1-yl)quinoline-8-carboxamide] | ≤ 100 | ≤ 10 | ≤ 10 |
| C[C@@H]1C[C@H](N)C[C@H](c2ccncc2NC(=O)c2ccc(F)c3cc(N4CCC[C@@H](C)C4)cnc23)C1 [Example 105, N-(4-((1R,3S,5S)-3-Amino-5-methylcyclohexyl)pyridin-3-yl)-5-fluoro-3-((R)-3-methylpiperidin-1-yl)quinoline-8-carboxamide] | ≤ 100 | ≤ 10 | ≤ 10 |
| C[C@@H]1C[C@H](N)C[C@H](c2ccncc2NC(=O)c2ccc(F)c3cc(N4C5CCCC4COC5)cnc23)C1 [Example 106, N-(4-((1R,3S,5S)-3-Amino-5-methylcyclohexyl)pyridin-3-yl)-3-(3-oxa-9-azabicyclo[3.3.1]nonan-9-yl)-5-fluoroquinoline-8-carboxamide] | ≤ 100 | ≤ 10 | ≤ 10 |
| C[C@@H]1C[C@H](N)C[C@H](c2ccncc2NC(=O)c2ccc(F)c3cc(N4CC5(CCC5)C4)cnc23)C1 [Example 107, N-(4-((1R,3S,5S)-3-Amino-5-methylcyclohexyl)pyridin-3-yl)-5-fluoro-3-(2-azaspiro[3.3]heptan-2-yl)quinoline-8-carboxamide] | ≤ 100 | ≤ 10 | ≤ 10 |
| C[C@@H]1C[C@H](N)C[C@H](c2ccncc2NC(=O)c2ccc(F)c3cc(N4CC[C@H](O)[C@@H](F)C4)cnc23)C1 [Example 108, N-(4-((1R,3S,5S)-3-Amino-5-methylcyclohexyl)pyridin-3-yl)-5-fluoro-3-((3S,4S)-3-fluoro-4-hydroxypiperidin-1-yl)quinoline-8-carboxamide] | ≤ 100 | ≤ 10 | ≤ 10 |
| C[C@@H]1C[C@H](N)C[C@H](c2ccncc2NC(=O)c2ccc(F)c3cc(N4CCCCO4)cnc23)C1 [Example 109, N-(4-((1R,3S,5S)-3-amino-5-methylcyclohexyl)pyridin-3-yl)-5-fluoro-3-(1,2-oxazinan-2-yl)quinoline-8-carboxamide] | ≤ 100 | ≤ 10 | ≤ 10 |
| C[C@@H]1C[C@H](N)C[C@H](c2ccncc2NC(=O)c2ccc(F)c3cc(N4CC5COCC5C4)cnc23)C1 (stereo partly drawn) [Example 110, N-(4-((1R,3S,5S)-3-Amino-5-methylcyclohexyl)pyridin-3-yl)-3-(dihydro-1H-furo[3,4-c]pyrrol-5(3H,6H,6aH)-yl)-5-fluoroquinoline-8-carboxamide] | ≤ 100 | ≤ 10 | ≤ 10 |
| CC1CN(c2cnc3c(C(=O)Nc4cnccc4[C@@H]4C[C@H](C)C[C@H](N)C4)ccc(F)c3c2)C1 [Example 111, N-(4-((1R,3S,5S)-3-Amino-5-methylcyclohexyl)pyridin-3-yl)-5-fluoro-3-(3-methylazetidin-1-yl)quinoline-8-carboxamide] | ≤ 100 | ≤ 10 | ≤ 10 |
| C[C@@H]1C[C@H](N)C[C@H](c2ccncc2NC(=O)c2ccc(F)c3cc(N4CCN(C)C(=O)[C@@H]4C)cnc23)C1 [Example 112, N-(4-((1R,3S,5S)-3-Amino-5-methylcyclohexyl)pyridin-3-yl)-3-((5)-2,4-dimethyl-3-oxopiperazin-1-yl)-5-fluoroquinoline-8-carboxamide] | ≤ 100 | ≤ 10 | ≤ 10 |
| C[C@@H]1C[C@H](N)C[C@H](c2ccncc2NC(=O)c2ccc(F)c3cc(N4CCC[C@H](C)C4)cnc23)C1 [Example 113, N-(4-((1R,3S,5S)-3-Amino-5-methylcyclohexyl)pyridin-3-yl)-5-fluoro-3-((S)-3-methylpiperidin-1-yl)quinoline-8-carboxamide] | ≤ 100 | ≤ 10 | ≤ 10 |
| C[C@@H]1C[C@H](N)C[C@H](c2ccncc2NC(=O)c2ccc(F)c3cc(N4CCN(C5CC5)C(=O)C4)cnc23)C1 [Example 114, N-(4-((1R,3S,5S)-3-Amino-5-methylcyclohexyl)pyridin-3-yl)-3-(4-cyclopropyl-3-oxopiperazin-1-yl)-5-fluoroquinoline-8-carboxamide] | ≤ 100 | ≤ 10 | ≤ 10 |
| CC(C)N1CCN(c2cnc3c(C(=O)Nc4cnccc4[C@@H]4C[C@H](C)C[C@H](N)C4)ccc(F)c3c2)CC1=O [Example 115, N-(4-((1R,3S,5S)-3-Amino-5-methylcyclohexyl)pyridin-3-yl)-5-fluoro-3-(4-isopropyl-3-oxopiperazin-1-yl)quinoline-8-carboxamide] | ≤ 100 | ≤ 10 | ≤ 10 |
| C[C@@H]1C[C@H](N)C[C@H](c2ccncc2NC(=O)c2ccc(F)c3cc(N4CC(C)(C)C4)cnc23)C1 [Example 116, N-(4-((1R,3S,5S)-3-Amino-5-methylcyclohexyl)pyridin-3-yl)-3-(3,3-dimethylazetidin-1-yl)-5-fluoroquinoline-8-carboxamide] | ≤ 100 | ≤ 10 | ≤ 10 |
